{"source": "patent US8513283B2", "about": "“Spiro substituted compounds as angiogenesis inhibitors” (Advenchen Laboratories, LLC, priority 2007, dated 2013)", "key": {"[1]": {"system": "human colon cancer HT29 xenograft", "assay": "animal antitumor activity, HT29 xenograft", "format": "in vivo, mice", "details": "FIG. 1"}, "KDR(h)": {"target": "KDR(h) (Homo sapiens, UniProt P35968)", "sequence (P35968 20-1356)": "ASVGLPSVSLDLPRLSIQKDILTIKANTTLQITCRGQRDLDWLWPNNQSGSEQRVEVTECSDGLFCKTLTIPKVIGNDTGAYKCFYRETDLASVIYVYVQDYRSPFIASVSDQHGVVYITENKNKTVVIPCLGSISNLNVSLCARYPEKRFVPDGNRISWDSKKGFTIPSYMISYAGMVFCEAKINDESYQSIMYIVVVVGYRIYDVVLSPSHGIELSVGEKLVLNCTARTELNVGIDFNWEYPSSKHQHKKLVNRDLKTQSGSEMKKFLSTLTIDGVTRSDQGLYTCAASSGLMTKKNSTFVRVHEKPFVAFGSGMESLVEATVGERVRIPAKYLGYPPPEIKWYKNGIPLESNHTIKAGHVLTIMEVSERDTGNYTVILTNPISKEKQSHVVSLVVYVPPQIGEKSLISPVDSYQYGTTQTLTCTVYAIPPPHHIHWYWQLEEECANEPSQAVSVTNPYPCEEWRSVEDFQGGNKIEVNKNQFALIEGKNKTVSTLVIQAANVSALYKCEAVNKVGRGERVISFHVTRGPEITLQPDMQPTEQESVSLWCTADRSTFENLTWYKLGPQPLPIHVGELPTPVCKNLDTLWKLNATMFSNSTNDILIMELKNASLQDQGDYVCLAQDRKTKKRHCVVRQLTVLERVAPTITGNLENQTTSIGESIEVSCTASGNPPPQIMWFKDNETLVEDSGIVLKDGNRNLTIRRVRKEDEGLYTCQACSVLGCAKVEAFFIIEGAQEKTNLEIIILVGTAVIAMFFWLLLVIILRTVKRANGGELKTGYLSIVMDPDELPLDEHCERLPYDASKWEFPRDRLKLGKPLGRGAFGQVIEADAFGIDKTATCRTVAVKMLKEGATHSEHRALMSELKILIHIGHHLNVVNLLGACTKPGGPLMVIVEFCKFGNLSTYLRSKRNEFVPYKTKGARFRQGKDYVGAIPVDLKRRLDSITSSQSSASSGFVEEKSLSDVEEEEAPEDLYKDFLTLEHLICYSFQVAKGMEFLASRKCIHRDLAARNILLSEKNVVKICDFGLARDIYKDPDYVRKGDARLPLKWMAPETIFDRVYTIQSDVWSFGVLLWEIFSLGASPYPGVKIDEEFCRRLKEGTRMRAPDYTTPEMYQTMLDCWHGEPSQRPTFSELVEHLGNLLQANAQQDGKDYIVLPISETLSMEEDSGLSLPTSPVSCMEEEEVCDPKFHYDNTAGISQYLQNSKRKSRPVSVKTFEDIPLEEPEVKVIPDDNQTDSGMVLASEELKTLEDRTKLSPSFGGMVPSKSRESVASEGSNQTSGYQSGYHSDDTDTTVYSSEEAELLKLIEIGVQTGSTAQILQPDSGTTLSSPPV", "assay": "in vitro tyrosine kinase inhibition", "format": "biochemical"}, "c-RAF(h)": {"target": "c-RAF(h) (Homo sapiens, UniProt P04049)", "sequence (P04049 whole entry)": "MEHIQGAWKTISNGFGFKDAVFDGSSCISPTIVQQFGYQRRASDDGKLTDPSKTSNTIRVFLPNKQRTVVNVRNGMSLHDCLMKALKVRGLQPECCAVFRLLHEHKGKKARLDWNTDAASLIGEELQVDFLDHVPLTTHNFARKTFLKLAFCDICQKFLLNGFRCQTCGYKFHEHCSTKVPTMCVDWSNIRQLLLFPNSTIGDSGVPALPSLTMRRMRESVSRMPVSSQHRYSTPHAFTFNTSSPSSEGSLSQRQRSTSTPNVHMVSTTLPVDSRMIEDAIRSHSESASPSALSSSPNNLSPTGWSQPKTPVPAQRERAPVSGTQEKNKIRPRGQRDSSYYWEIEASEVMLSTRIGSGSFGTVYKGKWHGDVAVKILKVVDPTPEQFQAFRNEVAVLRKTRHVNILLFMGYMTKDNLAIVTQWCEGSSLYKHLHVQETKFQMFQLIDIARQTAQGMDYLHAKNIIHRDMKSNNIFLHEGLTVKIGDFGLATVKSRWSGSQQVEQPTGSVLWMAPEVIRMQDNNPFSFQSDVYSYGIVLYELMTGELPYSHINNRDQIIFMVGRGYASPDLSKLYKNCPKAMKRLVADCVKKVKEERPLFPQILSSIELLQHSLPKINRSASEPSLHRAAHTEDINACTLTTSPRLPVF", "assay": "in vitro kinase inhibition", "format": "biochemical", "excerpt": "(§1) Several in vitro tyrosine kinase inhibition activities can be measured according to the description in Rewcastle, G W, J. Med. Chem. 1996, 39, 918-928 and Edwards M, International Biotechnology Lab 5 (3), 19-25, 1987. Oncogene, 1990, 5: 519-524. The Baculovirus Expression System: A Laboratory Guide, L. A. King 1992. Sambrook et al, 1989, Molecular cloning—A Laboratory Manual, 2nd edition, Cold Spring Harbour Laboratory Press. O'Reilly et al, 1992, Baculovirus Expression Vectors—A Laboratory Manual, W. H. Freeman and Co, New York.\n(§2) Receptor tyrosine kinase can be obtained in partially purified form from A-431 cells similar to those described by Carpenter et al., J. Biol. Chem., 1979, 254, 4884, Cohen et al., J. Biol. Chem., 1982, 257, 1523 and by Braun et al., J. Biol. Chem., 1984, 259, 2051. Some of these tests can also be contracted with Millipore Upstate Ltd for screening."}, "PDGFRα(h)": {"target": "PDGFRα(h) (Homo sapiens, UniProt P16234)", "assay": "in vitro tyrosine kinase inhibition", "format": "biochemical", "excerpt": "as §1, §2"}, "cKit(h)": {"target": "cKit(h) (Homo sapiens, UniProt P10721)", "sequence (P10721 26-976)": "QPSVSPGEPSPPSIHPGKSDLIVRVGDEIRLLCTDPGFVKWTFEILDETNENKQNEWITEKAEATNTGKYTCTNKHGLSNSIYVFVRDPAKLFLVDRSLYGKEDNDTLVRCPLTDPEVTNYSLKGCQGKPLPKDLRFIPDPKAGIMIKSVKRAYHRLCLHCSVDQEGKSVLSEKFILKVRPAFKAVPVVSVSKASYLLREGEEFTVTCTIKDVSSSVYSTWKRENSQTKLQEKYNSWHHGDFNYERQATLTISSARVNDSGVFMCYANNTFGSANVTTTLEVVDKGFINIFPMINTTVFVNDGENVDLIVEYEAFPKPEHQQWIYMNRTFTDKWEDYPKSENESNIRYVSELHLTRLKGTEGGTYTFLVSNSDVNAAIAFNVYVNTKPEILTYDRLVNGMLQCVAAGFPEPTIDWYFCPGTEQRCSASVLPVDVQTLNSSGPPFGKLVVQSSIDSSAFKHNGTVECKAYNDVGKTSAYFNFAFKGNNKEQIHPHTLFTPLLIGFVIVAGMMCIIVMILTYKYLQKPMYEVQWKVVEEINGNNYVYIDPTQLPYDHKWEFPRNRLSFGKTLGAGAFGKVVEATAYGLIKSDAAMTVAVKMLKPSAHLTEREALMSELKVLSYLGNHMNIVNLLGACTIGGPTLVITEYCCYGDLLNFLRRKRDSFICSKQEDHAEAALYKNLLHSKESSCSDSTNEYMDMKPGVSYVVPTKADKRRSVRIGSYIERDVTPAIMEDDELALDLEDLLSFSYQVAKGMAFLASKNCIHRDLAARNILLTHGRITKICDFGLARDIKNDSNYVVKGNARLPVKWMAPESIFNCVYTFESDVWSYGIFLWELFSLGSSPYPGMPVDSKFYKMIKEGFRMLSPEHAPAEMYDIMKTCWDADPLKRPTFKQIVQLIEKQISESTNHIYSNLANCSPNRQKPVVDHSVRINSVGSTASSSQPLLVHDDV", "assay": "in vitro tyrosine kinase inhibition", "format": "biochemical", "excerpt": "as §1, §2"}, "Flt4(h)": {"target": "Flt4(h) (Homo sapiens, UniProt P35916)", "assay": "in vitro tyrosine kinase inhibition", "format": "biochemical", "excerpt": "as §1, §2"}, "Flt1(h)": {"target": "Flt1(h) (Homo sapiens, UniProt P17948)", "sequence (P17948 27-1338)": "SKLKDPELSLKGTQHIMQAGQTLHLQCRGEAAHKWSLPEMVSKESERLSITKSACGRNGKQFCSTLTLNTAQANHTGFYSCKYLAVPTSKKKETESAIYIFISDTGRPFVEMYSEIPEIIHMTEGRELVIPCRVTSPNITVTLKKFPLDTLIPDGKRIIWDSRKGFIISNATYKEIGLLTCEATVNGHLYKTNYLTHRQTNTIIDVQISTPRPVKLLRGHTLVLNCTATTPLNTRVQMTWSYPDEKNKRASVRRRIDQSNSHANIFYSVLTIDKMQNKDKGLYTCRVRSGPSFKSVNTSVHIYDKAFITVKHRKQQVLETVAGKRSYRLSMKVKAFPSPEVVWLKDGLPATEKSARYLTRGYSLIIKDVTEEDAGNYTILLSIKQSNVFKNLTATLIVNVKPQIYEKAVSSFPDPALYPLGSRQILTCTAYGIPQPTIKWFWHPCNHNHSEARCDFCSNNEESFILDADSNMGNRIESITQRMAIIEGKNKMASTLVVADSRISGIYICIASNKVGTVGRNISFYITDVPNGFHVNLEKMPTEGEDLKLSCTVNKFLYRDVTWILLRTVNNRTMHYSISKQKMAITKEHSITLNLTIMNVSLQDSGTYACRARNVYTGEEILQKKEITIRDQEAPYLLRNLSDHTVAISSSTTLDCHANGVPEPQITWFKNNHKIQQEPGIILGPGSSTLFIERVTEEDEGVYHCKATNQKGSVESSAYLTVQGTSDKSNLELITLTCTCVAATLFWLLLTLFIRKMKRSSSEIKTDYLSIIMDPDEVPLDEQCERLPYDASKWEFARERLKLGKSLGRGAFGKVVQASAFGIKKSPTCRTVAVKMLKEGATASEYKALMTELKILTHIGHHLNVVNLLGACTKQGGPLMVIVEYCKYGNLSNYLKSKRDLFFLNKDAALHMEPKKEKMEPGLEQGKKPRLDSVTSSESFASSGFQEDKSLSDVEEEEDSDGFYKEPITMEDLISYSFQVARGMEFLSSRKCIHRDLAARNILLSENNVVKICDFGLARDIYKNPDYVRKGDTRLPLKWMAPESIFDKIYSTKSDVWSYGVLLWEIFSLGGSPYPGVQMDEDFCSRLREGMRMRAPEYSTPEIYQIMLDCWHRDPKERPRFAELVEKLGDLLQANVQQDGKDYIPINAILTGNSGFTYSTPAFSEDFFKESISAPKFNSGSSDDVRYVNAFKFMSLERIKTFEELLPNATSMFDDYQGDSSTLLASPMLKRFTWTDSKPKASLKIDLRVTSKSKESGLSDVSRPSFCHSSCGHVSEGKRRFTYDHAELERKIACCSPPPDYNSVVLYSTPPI", "assay": "in vitro tyrosine kinase inhibition", "format": "biochemical", "excerpt": "as §1, §2"}, "[2]": {"system": "human liver cancer Bel-7402 xenograft", "assay": "animal antitumor activity, Bel-7402 xenograft", "format": "in vivo, mice", "details": "FIG. 2"}}}
{"smiles": "CNC(=O)c1cccc2cc(Oc3ccnc4cc(OCC5(N)CC5)c(OC)cc34)ccc12", "note": "[AL3810]", "values": [{"measurement": "efficacy on animal model compared with SU11248", "setting": "[1]", "value": "better efficacy than SU11248"}, {"measurement": "IC50", "setting": "KDR(h)", "value": 15, "unit": "nM"}, {"measurement": "IC50", "setting": "c-RAF(h)", "value": 293, "unit": "nM"}, {"measurement": "IC50", "setting": "PDGFRα(h)", "value": 219, "unit": "nM"}, {"measurement": "IC50", "setting": "cKit(h)", "value": 234, "unit": "nM"}, {"measurement": "IC50", "setting": "Flt4(h)", "value": 2, "unit": "nM"}, {"measurement": "IC50", "setting": "Flt1(h)", "value": 4, "unit": "nM"}, {"measurement": "efficacy on animal model compared with Nexavar", "setting": "[2]", "value": "better efficacy"}]}
